Results taken from the supplement of paper PMC10307832.

Legend:
Crizotinib + Navitoclax = compound: C[C@@H](Oc1cc(-c2cnn(C3CCNCC3)c2)cnc1N)c1c(Cl)ccc(F)c1Cl [Crizotinib] + CC1(C)CCC(c2ccc(Cl)cc2)=C(CN2CCN(c3ccc(C(=O)NS(=O)(=O)c4ccc(N[C@H](CCN5CCOCC5)CSc5ccccc5)c(S(=O)(=O)C(F)(F)F)c4)cc3)CC2)C1 [Navitoclax] (partner 0.5 µM); experiment: relative viability (nuclei count vs DMSO), 5 days (fraction); higher = more cells survive
Summary of the method: (§1)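 A single step with final 0.05% Triton X-100, 1% formaldehyde and 1 ug/ml Hoechst fixed the cells and stained nuclei 5 days after treatment. Lung cancer cell lines in 1536-well plates had been treated by pin tool the day after seeding with one drug alone or a fixed anchor-drug dose plus five library-drug doses (not always all listed) in √10 steps, and nuclei were counted on 4× images. Relative viability is the ratio of nuclei in treated wells to nuclei in vehicle wells, taken as the median of duplicate plates.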

Carfilzomib + Tozasertib = compound: CC(C)C[C@H](NC(=O)[C@H](CCc1ccccc1)NC(=O)CN1CCOCC1)C(=O)N[C@@H](Cc1ccccc1)C(=O)N[C@@H](CC(C)C)C(=O)[C@@]1(C)CO1 [Carfilzomib] + Cc1cc(Nc2cc(N3CCN(C)CC3)nc(Sc3ccc(NC(=O)C4CC4)cc3)n2)n[nH]1 [Tozasertib] (partner 0.1 µM); experiment: as above
Summary of the method: as §1

Cell Line	relative viability (Crizotinib + Navitoclax; first compound 0.01 µM)	relative viability (Crizotinib + Navitoclax; first compound 0.03162 µM)	relative viability (Crizotinib + Navitoclax; first compound 0.1 µM)	relative viability (Crizotinib + Navitoclax; first compound 0.3162 µM)	relative viability (Crizotinib + Navitoclax; first compound 1 µM)	relative viability (Carfilzomib + Tozasertib; first compound 0.001 µM)	relative viability (Carfilzomib + Tozasertib; first compound 0.003162 µM)	relative viability (Carfilzomib + Tozasertib; first compound 0.01 µM)	relative viability (Carfilzomib + Tozasertib; first compound 0.03162 µM)	relative viability (Carfilzomib + Tozasertib; first compound 0.1 µM)
201T	1.2	1.18	1.16	1.19	1.21	0.957	1	1.04	0.993	0.754
A549	1.22	1.15	1.19	1.17	1.18					
A-427	0.95	1.03	1		1.02	0.207	0.236	0.198	0.099	0.103
ABC-1						0.196	0.193	0.196	0.212	0.211
BEN	0.0724	0.0669	0.0752	0.0683	0.0583	0.554	0.547	0.591	0.553	0.421
CAL-12T	1.19	1.22	1.06	1.18	1.21	0.313	0.393	0.333	0.251	0.125
COR-L23	0.952	0.993	1.1	0.937	1.03	0.216	0.319	0.216	0.0505	0.0802
COR-L 105	0.771		0.908	0.871	0.76	0.328	0.311	0.411	0.263	0.225
Calu-6	0.8	0.766	0.836	0.774	0.735					
ChaGo-K-1	0.965	0.922	1.1		0.854	0.207	0.236	0.224	0.225	0.157
EBC-1	0.49	0.344	0.12	0.152	0.16					
EKVX	0.879	1	0.95	0.871	0.961	0.346	0.432	0.435	0.34	0.281
EMC-BAC-2	1.13	1.19	1.13	1.12	1.15	0.284	0.298	0.305	0.212	0.194
EPLC-272H		1.1	1.26	1.1	1.15	0.282	0.25	0.317	0.105	0.0498
H3255	0.53	0.499	0.521	0.484	0.487	0.697	0.604	0.686	0.737	0.392
HARA	1.13	1.08	1.13	1.13	1.1	0.11	0.106	0.117	0.0557	0.0586
HCC-15	0.644	0.736	0.704	0.664	0.76	0.385	0.393	0.385	0.356	0.0753
HCC-44	0.838	0.969	0.963	1.01	1.05	0.826	1.05	1.22	0.303	0.157
